Where “and” joins values, the source holds several entries; their conditions need not be identical. Equal entries are not always repeated. Toxic doses and inconclusive results are not listed. Rule for the calls: active = survival T/C of 150% or more; inactive = T/C below 125% in these data.
System: CD2F1 mice, L1210 leukemia ip, survival T/C
Assay: NCI In Vivo Anticancer Drug Screen. Data for tumor model L1210 Leukemia (intraperitoneal) in CD2F1 (CDF1) mice
Conditions: higher = longer survival
How it was run: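 Implant tumor; dose compound or vehicle; measure endpoint in both groups; report treated divided by control.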

[1] = endpoint: mean survival time, dose: 100.0 mg/kg/injection, schedule: Q01DX009 (ip), vehicle: saline with Tween-80
[2] = endpoint: mean survival time, dose: 200.0 mg/kg/injection, schedule: Q01DX009 (ip), vehicle: saline with Tween-80
[3] = endpoint: mean survival time, dose: 400.0 mg/kg/injection, schedule: Q01DX009 (ip), vehicle: saline with Tween-80
[4] = endpoint: mean survival time, dose: 25.0 mg/kg/injection, schedule: Q01DX009 (ip), vehicle: saline with Tween-80
[5] = endpoint: mean survival time, dose: 50.0 mg/kg/injection, schedule: Q01DX009 (ip), vehicle: saline with Tween-80
[6] = endpoint: mean survival time, dose: 100.0 mg/kg/injection, schedule: Q04DX003 (ip), vehicle: saline with Tween-80

Measured: T/C

Cn1c(=O)c2c(ncn2C)n(C)c1=O
inactive: endpoint: mean survival time, dose: 128.0 mg/kg/injection, schedule: Q11HX001 (sc), vehicle: water 94 % of control and 103 % of control | endpoint: mean survival time, dose: 160.0 mg/kg/injection, schedule: Q11HX001 (sc), vehicle: water 95 % of control and 98 % of control | endpoint: mean survival time, dose: 200.0 mg/kg/injection, schedule: Q11HX001 (sc), vehicle: water 96 % of control and 98 % of control | endpoint: mean survival time, dose: 250.0 mg/kg/injection, schedule: Q11HX001 (sc), vehicle: water 96 % of control and 98 % of control | endpoint: median survival time, dose: 150.0 mg/kg/injection, schedule: Q01DX001 (ip), vehicle: water 103 % of control | endpoint: median survival time, dose: 150.0 mg/kg/injection, schedule: Q01DX001 (sc), vehicle: water 102 % of control and 109 % of control | endpoint: median survival time, dose: 200.0 mg/kg/injection, schedule: Q01DX001 (ip), vehicle: water 104 % of control | endpoint: median survival time, dose: 200.0 mg/kg/injection, schedule: Q01DX001 (sc), vehicle: water 104 % of control and 108 % of control | endpoint: median survival time, dose: 250.0 mg/kg/injection, schedule: Q01DX001 (sc), vehicle: water 95 % of control and 107 % of control

CCCCCCC(O)CCCCCC
inactive: endpoint: mean survival time, dose: 100.0 mg/kg/injection, schedule: Q01DX009 (ip), vehicle: other 96 % of control | endpoint: mean survival time, dose: 100.0 mg/kg/injection, schedule: Q04DX003 (ip), vehicle: other 100 % of control | endpoint: mean survival time, dose: 200.0 mg/kg/injection, schedule: Q01DX009 (ip), vehicle: other 98 % of control | endpoint: mean survival time, dose: 200.0 mg/kg/injection, schedule: Q04DX003 (ip), vehicle: other 97 % of control | endpoint: mean survival time, dose: 400.0 mg/kg/injection, schedule: Q01DX009 (ip), vehicle: other 98 % of control | endpoint: mean survival time, dose: 400.0 mg/kg/injection, schedule: Q04DX003 (ip), vehicle: other 95 % of control

OCC1OC(c2[nH]nc3c(NO)ncnc23)C(O)C1O (stereo not drawn)
inactive: endpoint: mean survival time, dose: 75.0 mg/kg/injection, schedule: Q01DX001 (ip), vehicle: saline 107 % of control | endpoint: mean survival time, dose: 150.0 mg/kg/injection, schedule: Q01DX001 (ip), vehicle: saline 107 % of control

NC(=O)COc1ccc(Br)cc1
inactive: endpoint: mean survival time, dose: 100.0 mg/kg/injection, schedule: Q04DX002 (ip), vehicle: saline with Tween-80 102 % of control | endpoint: mean survival time, dose: 200.0 mg/kg/injection, schedule: Q04DX002 (ip), vehicle: saline with Tween-80 98 % of control

COC(=O)CCC(=O)Nc1ccccc1C(C)=O
inactive: [1] 101 % of control | [2] 104 % of control | [3] 106 % of control

Nc1nc2c(ncn2C2OC(CO)C(O)C2O)c(=O)[nH]1 (stereo not drawn)
inactive: [4] 98 % of control and 105 % of control | [5] 101 % of control and 103 % of control | [1] 98 % of control and 102 % of control | [2] 95 % of control and 104 % of control | [3] 101 % of control and 104 % of control | endpoint: mean survival time, dose: 800.0 mg/kg/injection, schedule: Q01DX009 (ip), vehicle: saline with Tween-80 98 % of control and 110 % of control | endpoint: median survival time, dose: 1000.0 mg/kg/injection, schedule: Q01DX009 (ip), vehicle: saline with Tween-80 106 % of control | endpoint: median survival time, dose: 1500.0 mg/kg/injection, schedule: Q01DX009 (ip), vehicle: saline with Tween-80 89 % of control | endpoint: median survival time, dose: 2000.0 mg/kg/injection, schedule: Q01DX009 (ip), vehicle: saline with Tween-80 91 % of control and 108 % of control

COCCNC(=S)SCCN(C(C)C)C(C)C
inactive: endpoint: mean survival time, dose: 100.0 mg/kg/injection, schedule: Q01DX001 (sc), vehicle: olive oil, sesame oil, peanut oil 110 % of control

Cc1cc(-c2ccccc2)cc(=S)[nH]1
inactive: endpoint: mean survival time, dose: 100.0 mg/kg/injection, schedule: Q01DX001 (ip), vehicle: carboxymethylcellulose (CMC) 88 % of control | endpoint: mean survival time, dose: 200.0 mg/kg/injection, schedule: Q01DX001 (ip), vehicle: carboxymethylcellulose (CMC) 94 % of control | endpoint: mean survival time, dose: 400.0 mg/kg/injection, schedule: Q01DX001 (ip), vehicle: carboxymethylcellulose (CMC) 95 % of control

CC1(C)OC2C(C3N(c4ccccc4)CCN3c3ccccc3)OC(n3ccc(=O)[nH]c3=O)C2O1 (stereo not drawn)
inactive: endpoint: mean survival time, dose: 12.5 mg/kg/injection, schedule: Q01DX005 (ip), vehicle: distilled water + Tween-80 97 % of control | endpoint: mean survival time, dose: 25.0 mg/kg/injection, schedule: Q01DX005 (ip), vehicle: distilled water + Tween-80 94 % of control | endpoint: mean survival time, dose: 50.0 mg/kg/injection, schedule: Q01DX005 (ip), vehicle: distilled water + Tween-80 94 % of control | endpoint: mean survival time, dose: 100.0 mg/kg/injection, schedule: Q01DX005 (ip), vehicle: distilled water + Tween-80 91 % of control | endpoint: mean survival time, dose: 200.0 mg/kg/injection, schedule: Q01DX005 (ip), vehicle: distilled water + Tween-80 96 % of control

CCCCCCCCCCCCCCCC(=O)N(CCCN)c1ccc(N(CCCN)C(=O)CCCCCCCCCCCCCCC)cc1
inactive: [6] 98 % of control | endpoint: mean survival time, dose: 200.0 mg/kg/injection, schedule: Q04DX003 (ip), vehicle: saline with Tween-80 98 % of control | endpoint: mean survival time, dose: 400.0 mg/kg/injection, schedule: Q04DX003 (ip), vehicle: saline with Tween-80 97 % of control

COc1ccccc1N=O
inactive: endpoint: mean survival time, dose: 12.5 mg/kg/injection, schedule: Q01DX001 (ip), vehicle: Klucel (hydroxypropylcellulose) (HPC) 93 % of control | endpoint: mean survival time, dose: 25.0 mg/kg/injection, schedule: Q01DX001 (ip), vehicle: Klucel (hydroxypropylcellulose) (HPC) 96 % of control | endpoint: mean survival time, dose: 50.0 mg/kg/injection, schedule: Q01DX001 (ip), vehicle: Klucel (hydroxypropylcellulose) (HPC) 93 % of control

NC(=O)NO
inactive: endpoint: mean survival time, dose: 4.0 mg/kg/injection, schedule: Q03HX024 (ip), vehicle: saline 95 % of control | endpoint: mean survival time, dose: 8.0 mg/kg/injection, schedule: Q03HX024 (ip), vehicle: saline 97 % of control | endpoint: mean survival time, dose: 62.0 mg/kg/injection, schedule: Q03HX024 (ip), vehicle: saline 90 % of control | endpoint: mean survival time, dose: 100.0 mg/kg/injection, schedule: Q03DX003 (ip), vehicle: saline 110 % of control | endpoint: mean survival time, dose: 200.0 mg/kg/injection, schedule: Q04DX003 (ip), vehicle: saline 100 % of control | endpoint: median survival time, dose: 25.0 mg/kg/injection, schedule: Q03HX024 (ip), vehicle: saline 120 % of control | endpoint: median survival time, dose: 100.0 mg/kg/injection, schedule: Q06HX016 (ip), vehicle: saline 99 % of control | endpoint: median survival time, dose: 200.0 mg/kg/injection, schedule: Q06HX016 (ip), vehicle: saline 99 % of control

COC1=CC2c3ccccc3C1C1C(OC)=CC2c2ccccc21
inactive: [4] 96 % of control | [5] 98 % of control | [1] 96 % of control | [6] 88 % of control

CCSCCNC1=C(C)C(=O)C2=C(C1=O)[C@H](COC(N)=O)[C@]1(OC)[C@H]3[C@@H](CN21)N3C (stereo partly drawn)
inactive: endpoint: mean survival time, dose: 1.5 mg/kg/injection, schedule: Q01DX001 (ip), vehicle: distilled water + Tween-80 103 % of control | endpoint: mean survival time, dose: 3.0 mg/kg/injection, schedule: Q01DX001 (ip), vehicle: distilled water + Tween-80 96 % of control and 103 % of control and 109 % of control | endpoint: mean survival time, dose: 6.0 mg/kg/injection, schedule: Q01DX001 (ip), vehicle: distilled water + Tween-80 104 % of control and 107 % of control and 108 % of control | endpoint: mean survival time, dose: 12.0 mg/kg/injection, schedule: Q01DX001 (ip), vehicle: distilled water + Tween-80 115 % of control and 102 % of control and 110 % of control | endpoint: mean survival time, dose: 24.0 mg/kg/injection, schedule: Q01DX001 (ip), vehicle: distilled water + Tween-80 121 % of control and 124 % of control | endpoint: mean survival time, dose: 48.0 mg/kg/injection, schedule: Q01DX001 (ip), vehicle: distilled water + Tween-80 115 % of control

Nc1ncnc2nc(C(O)C(O)C(O)CO)[nH]c12 (stereo not drawn)
inactive: endpoint: median survival time, dose: 12.5 mg/kg/injection, schedule: Q01DX005 (ip), vehicle: distilled water + Tween-80 102 % of control | endpoint: median survival time, dose: 25.0 mg/kg/injection, schedule: Q01DX005 (ip), vehicle: distilled water + Tween-80 96 % of control | endpoint: median survival time, dose: 50.0 mg/kg/injection, schedule: Q01DX005 (ip), vehicle: distilled water + Tween-80 98 % of control | endpoint: median survival time, dose: 100.0 mg/kg/injection, schedule: Q01DX005 (ip), vehicle: distilled water + Tween-80 98 % of control | endpoint: median survival time, dose: 200.0 mg/kg/injection, schedule: Q01DX005 (ip), vehicle: distilled water + Tween-80 106 % of control

c1ccc2c(NCCCCCCCCNc3c4ccccc4nc4ccccc34)c3ccccc3nc2c1
inactive: endpoint: mean survival time, dose: 1.25 mg/kg/injection, schedule: Q01DX009 (ip), vehicle: Klucel (hydroxypropylcellulose) (HPC) 120 % of control | endpoint: mean survival time, dose: 2.5 mg/kg/injection, schedule: Q01DX009 (ip), vehicle: Klucel (hydroxypropylcellulose) (HPC) 114 % of control and 100 % of control | endpoint: mean survival time, dose: 5.0 mg/kg/injection, schedule: Q01DX009 (ip), vehicle: Klucel (hydroxypropylcellulose) (HPC) 119 % of control and 120 % of control and 111 % of control | endpoint: mean survival time, dose: 10.0 mg/kg/injection, schedule: Q01DX009 (ip), vehicle: Klucel (hydroxypropylcellulose) (HPC) 109 % of control and 111 % of control | endpoint: mean survival time, dose: 20.0 mg/kg/injection, schedule: Q01DX009 (ip), vehicle: Klucel (hydroxypropylcellulose) (HPC) 117 % of control

CC1=CCS(=O)(=O)C1
inactive: endpoint: mean survival time, dose: 50.0 mg/kg/injection, schedule: Q01DX009 (ip), vehicle: saline 111 % of control | endpoint: mean survival time, dose: 100.0 mg/kg/injection, schedule: Q01DX009 (ip), vehicle: saline 90 % of control

Cc1ccc(S(=O)(=O)Cl)cc1
inactive: endpoint: mean survival time, dose: 100.0 mg/kg/injection, schedule: Q04DX002 (ip), vehicle: saline 91 % of control | endpoint: mean survival time, dose: 200.0 mg/kg/injection, schedule: Q04DX002 (ip), vehicle: saline 100 % of control

Reference: PubChem BioAssay AID256 (DTP/NCI, 2004)
